From patent publication US8257931B2 (President and Fellows of Harvard College, priority 2005, dated 2012)
“And” between values parts separate entries of the source, which are not always exact repeats. Equal values may be shown once. “Also recorded” adds a separate entry of the source. Read-outs that look alike come from different tables or passages of the source. Each block holds one compound with its values, some of them ahead of it.

Tests used:
[1] = test system: cap-dependent translation; assay: In vitro translation of dual luciferase reporter in rabbit reticulocyte lysate, cap-dependent Renilla luciferase; type: biochemical
Source text: (§1) To determine the relative effects of the compound on cap dependent and independent translation, we utilized a bicistronic mRNA construct containing the gene for Renilla luciferase under the control of the cap and the message for firefly luciferase under the control of the cricket paralysis virus IRES (FIG. 2A). […] A dicistronic reporter construct containing the Renilla reniformis luciferase sequence after the 5′ UTR followed by the CrPV IRES and the firefly luciferase sequence was used to build a reporter construct plasmid. The reporter construct plasmid was linearized with BamHI and transcribed in vitro with an ARCA cap using the mMessage Machine T7 Ultra Kit (Ambion). In vitro translation reactions were carried out using Red Nova reticulocyte lysate (Novagen) with 2 mM magnesium acetate and […] potassium acetate, incubated at 30 degrees C. for 90 minutes. Translation of reporter genes was measured using the Dual-Glo luciferase assay (Promega) in a Wallac Victor^2 plate reader.
(§2) In addition to structurally characterizing the binding of our hit compounds, biological activities of the compounds was evaluated. […] To test this hypothesis in vitro, a translation assay in rabbit reticulocyte lysate was carried out. A dicistronic reporter construct containing a cap-dependent Renilla luciferase and a cricket paralysis virus IRES driven firefly luciferase was utilized to measure the relative affect of a compound on both translation mechanisms.
(§3) A functional cell free assay determined the relative effects of the compounds on cap- and IRES-dependent translations. This assay involved the in vitro translation of bicistronic mRNA reporter construct encoding for renilla luciferase in a cap-dependent and for firefly luciferase in a cap independent manner, the later driven by cricket paralysis virus IRES.

eIF4E = eIF4E (Mus musculus, UniProt P63073); assay: FP assay competing with fluorogenic eIF4G-derived peptide (KRYDREFLLGF); type: binding; details: for binding affinity / potency in FP assay compared with hit compound 1: relative to hit compound 1
Experimental: The values indicate the average concentration needed to inhibit 50% of cell proliferation. […] A dual luciferase reporter mRNA was translated for 90 minutes at 30° C. in RedNova reticulocyte lysate (Novagen) in the presence of increasing concentrations of the compound. […] (purple) activity was measured and normalized against an untreated control reaction. The m^7GDP and emetine were used as the positive and negative controls, respectively.
Displacement of Nα-fluorescein tagged eIF4G-derived peptide by a competing ligand causes a large decrease in fluorescence polarization. The non-tagged version of the same eIF4G-derived peptide and DMSO were used as positive and negative control, respectively.

A549 and HT29 cell lines = assay: Alamar Blue growth inhibition, statements covering both A549 and HT29; type: cell-based, human; details: for GI50: Homo sapiens
Experimental: (§4) Adherent human solid tumor cells were plated and maintained for 3 days in the presence of increasing concentration of the compounds, and cell proliferation was measured by alamar blue assay, where 10% of commercially available solution is added to the cell medium and measure fluorescence in 96-well plates at wavelength of 530 nm excitation and 590 nm emission. The data calculations were carried out as previously described.
(§5) Compounds were further tested for cell growth inhibition in a human lung cancer cell line (A549) and conlon cancer cell line (HT29). The Alamar Blue assay, which specifically measures the inhibition of cell proliferation, was used to assess the GI50's of the compounds.

IRES driven translation = assay: In vitro translation of dual luciferase reporter in rabbit reticulocyte lysate, CrPV IRES driven firefly luciferase; type: biochemical
Source text: as §1, §2, §3

[2] = test system: human lung cancer cell line (A549); assay: A549 cell growth inhibition, Alamar Blue assay; type: cell-based
Experimental: as §4, §5

HT29 colon cancer cells = assay: HT29 cell growth, Alamar Blue assay; type: cell-based; details: Homo sapiens, HT-29; Alamar Blue assay
Experimental: as §4
Med. Chem. Lett. 14: 2547-50, 2004. […] .
as §5

eIF4E/eIF4G interaction = target: T1, eIF4E/eIF4G interaction (Mus musculus, UniProt P63073); assay: Fluorescence polarization assay: binding of fluorescein-labeled eIF4G peptide to eIF4E; set-up: species or system murine; details: triplicate, SD<±10%, read-out: IC50 (μM) (4E/4G FP)
T1 construct: made in house; host or cells: E. coli
Experimental: We adapted this assay to a microwell plate format and used it to screen the 16,000 compound Chembridge DiverSet E library. […] For screening and subsequent peptide binding assays measurements of fluorescence polarization were made using an LJL Analyst plate reader. For the screening assay a solution containing approximately 5 μM meIF4E, 60 nM labeled peptide, 0.05% bovine γ-globulin, and 2 mM DTT in a buffer composed of 50 mM sodium phosphate and 50 mM potassium chloride at pH 6.5 was used. […] The curve fitting for estimation of binding constants used equations derived by Roehrl et al.^22 Measurements of fluorescence polarization and anisotropy were made in black 384-well plates (Corning) using an Analyst plate reader (LJL Biosystems) Compounds were transferred to plates during the screening using a custom-built Seiko pin transfer robot at the Institute for Chemistry and Cell Biology (ICCB) at Harvard Medical School.
A fluorescence polarization (FP) assay was developed to measure binding of a peptide containing the conserved eIF4E-binding motif to eIF4E.
The assay was adapted to a microwell plate format and used to screen a number of libraries comprised of small molecule libraries for potential eIF4E/eIF4G interaction inhibitors.

A549 lung cancer cells = assay: A549 proliferation, sulforhodamine B (SRB) assay; type: cell-based, human; details: sulforhodamine B assay, triplicate
Experimental: FIG. 28 is a graph showing the results of a cell proliferation assay. A549 cells, which are human lung cancer cells, are grown in plates for five days in medium containing 5% FCS and compound. The number of cells is quantified by staining with sulforhodamine B.

[3] = HT29 and A549, both, read-out: GI50 in both cell lines
[4] = HT29 or A549, at least one, read-out: GI50 in at least one cell line
[5] = Homo sapiens, A549, Table 1 of b347

Sequence of eIF4E (P63073 whole entry): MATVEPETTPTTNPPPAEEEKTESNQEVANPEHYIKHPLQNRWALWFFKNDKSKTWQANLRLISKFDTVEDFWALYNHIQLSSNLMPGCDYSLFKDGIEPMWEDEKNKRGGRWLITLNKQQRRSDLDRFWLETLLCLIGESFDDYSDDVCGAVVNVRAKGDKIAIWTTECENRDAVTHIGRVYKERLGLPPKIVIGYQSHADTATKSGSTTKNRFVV
T1 sequence (P63073 whole entry): as above

SMILES: Cn1c[n+]([C@@H]2O[C@H](COP(=O)(O)OP(=O)([O-])O)[C@@H](O)[C@H]2O)c2nc(N)[nH]c(=O)c21 [m7GDP, reference compound]
cap-dependent translation (Renilla luciferase) [1]: specifically inhibits the cap-dependent message

SMILES: CC[C@H]1CN2CCc3cc(OC)c(OC)cc3[C@@H]2C[C@@H]1C[C@H]1NCCc2cc(OC)c(OC)cc21 [emetine, reference compound]
IRES driven / cap-independent translation (firefly luciferase) (IRES driven translation): inhibits translation of both messages equally well | cap-dependent translation (Renilla luciferase) [1]: inhibits translation of both messages equally well

SMILES: O=C(O)C(Cc1ccccc1[N+](=O)[O-])=NNc1nc(-c2ccc3c(c2)OCCCO3)cs1 [4e, 2-{[4-(3,4-Dihydro-2H-benzo[b][1,4]dioxepin-7-yl)-thiazol-2-yl]-hydrazono}-3-(2-nitro-phenyl)-propionic acid]
GI50 [2]: 24 µM | binding affinity / potency in FP assay compared with hit compound 1 (eIF4E): equipotent | GI50 (HT29 colon cancer cells): 45 µM | GI50 (A549 and HT29 cell lines; [3]): > 24 µM

SMILES: O=C(O)C(Cc1ccccc1)=NNc1nc(-c2ccccc2)cs1 [4b]
IC50 (eIF4E/eIF4G interaction; Table 1 of b280): > 600 µM | GI50 (A549 lung cancer cells; Table 1): 4 µM | cap-dependent translation (Renilla luciferase) [1]: Inhibition of cap-dependent translation

SMILES: OC/C(Cc1ccccc1)=N/Nc1nc(-c2ccccc2)cs1 [Z-15, 3-Phenyl-2-[(4-phenyl-thiazol-2-yl)-hydrazono]-propan-1-ol]
IC50 (eIF4E/eIF4G interaction; Table 1 of b280): > 600 µM | IC50 (eIF4E/eIF4G interaction; Table 1 of b347): > 600 µM | GI50 (A549 lung cancer cells; Homo sapiens, A549, Table 1 of b280): 14 µM | GI50 (A549 lung cancer cells; [5]): 14 µM

SMILES: O=C(Cc1ccccc1)NNc1nc(-c2ccccc2)cs1 [compound 12]
IC50 (eIF4E/eIF4G interaction; Table 1 of b347): > 600 µM | GI50 (A549 lung cancer cells; [5]): > 20 µM

SMILES: Cc1sc(N/N=C(\Cc2ccccc2)C(=O)O)nc1-c1ccccc1 [E-9, 2-[(5-Methyl-4-phenyl-thiazol-2-yl)-hydrazono]-3-phenyl-propionic acid]
IC50 (eIF4E/eIF4G interaction; Table 1 of b280): 350 µM | IC50 (eIF4E/eIF4G interaction; Table 1 of b347): > 300 µM | GI50 (A549 lung cancer cells; Table 1): 6 µM | GI50 (A549 lung cancer cells; Table 1, listed as E-4n): 6 µM

SMILES: O=C(O)/C(Cc1ccccc1)=N/Nc1nc(-c2ccccc2)c(-c2ccccc2)s1 [E-10, 2-[(4,5-Diphenyl-thiazol-2-yl)-hydrazono]-3-phenyl-propionic acid]
IC50 (eIF4E/eIF4G interaction; Table 1 of b280): 90 µM | IC50 (eIF4E/eIF4G interaction; Table 1 of b347): 100 µM and 88 µM | GI50 (A549 lung cancer cells; Table 1): 1.5 µM | GI50 (A549 lung cancer cells; Table 1, listed as E-4o): 1.5 µM

SMILES: O=C(O)C(Cc1ccccc1[N+](=O)[O-])=NNc1nc(-c2ccc(C3CCCCC3)cc2)cs1 [4g, 2-{[4-(4-Cyclohexyl-phenyl)-thiazol-2-yl]-hydrazono}-3-(2-nitro-phenyl)-propionic acid]
IRES driven / cap-independent translation (firefly luciferase) (IRES driven translation): enhance | potency in FP assay compared with 4f (eIF4E; relative to 4f): 2 fold | cap-dependent translation (Renilla luciferase) [1]: Inhibition of cap-dependent translation; also recorded: inhibit dose-dependently; also recorded: more effective | GI50 (A549 and HT29 cell lines; [4]): < 10 µM

More lines, main results first:

binding affinity / potency in FP assay compared with hit compound 1 (eIF4E): significantly less active | GI50 (A549 and HT29 cell lines; [3]): > 24 µM
SMILES: O=C(O)C(Cc1ccccc1[N+](=O)[O-])=NNc1nc(-c2ccc(N3CCCC3)cc2)cs1 [4i, 3-(2-Nitro-phenyl)-2-{[4-(4-pyrrolidin-1-yl-phenyl)-thiazol-2-yl]-hydrazono}-propionic acid]

binding affinity / potency in FP assay compared with hit compound 1 (eIF4E): more than 2 fold | GI50 (A549 and HT29 cell lines; [4]): < 10 µM
SMILES: O=C(O)C(Cc1ccccc1[N+](=O)[O-])=NNc1nc(-c2ccc3c(c2)OCCO3)cs1 [4d, 2-{[4-(2,3-Dihydro-benzo[1,4]dioxin-6-yl)-thiazol-2-yl]-hydrazono}-3-(2-nitro-phenyl)-propionic acid]

binding affinity / potency in FP assay compared with hit compound 1 (eIF4E): ~3 fold
SMILES: O=C(O)C(Cc1ccccc1[N+](=O)[O-])=NNc1nc(-c2ccc(N=Nc3ccccc3)cc2)cs1 [4j]

binding affinity / potency in FP assay compared with hit compound 1 (eIF4E): dramatic decrease
SMILES: O=C(O)C(Cc1ccccc1[N+](=O)[O-])=NNc1nc(-c2ccccc2)cs1 [4a]
growth inhibition of both cell lines compared with hit compound 1 (A549 and HT29 cell lines; HT29 and A549): dramatic decrease

binding affinity / potency in FP assay compared with hit compound 1 (eIF4E): significantly less active | GI50 (A549 and HT29 cell lines; [3]): > 24 µM
SMILES: O=C(O)C(Cc1ccccc1[N+](=O)[O-])=NNc1nc(-c2ccc(N3CCOCC3)cc2)cs1 [4h, 2-{[4-(4-Morpholin-4-yl-phenyl)-thiazol-2-yl]-hydrazono}-3-(2-nitro-phenyl)-propionic acid]

GI50 (A549 and HT29 cell lines; [4]): < 10 µM
SMILES: O=C(O)C(Cc1ccccc1[N+](=O)[O-])=NNc1nc(-c2ccc(-c3ccccc3)cc2)cs1 [4f, 2-[(4-Biphenyl-4-yl-thiazol-2-yl)-hydrazono]-3-(2-nitro-phenyl)-propionic acid]

GI50 (A549 and HT29 cell lines; [4]): < 10 µM
SMILES: O=C(O)C(Cc1ccccc1[N+](=O)[O-])=NNc1nc(-c2ccc3ccccc3c2)cs1 [4c, 2-[(4-Naphthalen-2-yl-thiazol-2-yl)-hydrazono]-3-(2-nitro-phenyl)-propionic acid]
